Assay results published in patent publication US10219516B2, “Molecules having pesticidal utility, and intermediates, compositions, and processes, related thereto” (priority 2015, dated 2019).
Read-outs that look alike come from different tables or passages of the source.

Assays:
Assay type in all cases: in vivo
[1] = system: Yellow Fever Mosquito (Aedes aegypti, AEDSAE); test: Bioassay on Yellow Fever Mosquito (YFM), 96-well plate larval assay; settings: for YFM (Biological Results, rating): Species YFM (Yellow Fever Mosquito); for YFM rating: Yellow Fever Mosquito, 96-well plate larval assay
Outline: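 Each well was scored for mortality after 3 days at room temperature under a non-evaporative lid. Test molecules came from DMSO masters (4000 ppm stock) diluted with water/acetone 90:10 and dispensed into six replicate plates, which were then infested with roughly 1-day-old larvae in liver-powder water.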

[2] = system: Cabbage Looper (Trichoplusia ni, TRIPNI); test: Bioassay on Cabbage Looper (CL), 128-well diet tray assay; settings: Trichoplusia ni
Outline: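 Second-instar larvae, one to five per well, were placed on artificial diet surface-treated with 50 μg/cm^2 test molecule applied in 90:10 acetone-water and dried, eight wells per molecule. Trays were covered, vented and held at 25° C., 14:10 light-dark for five to seven days; percent mortality per well was averaged.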

[3] = system: Beet Armyworm (Spodoptera exigua, LAPHEG); test: Bioassay on Beet Armyworm (BAW), 128-well diet tray assay
Outline: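 Diet tray, 8 wells/compound; 50 μg/cm^2 applied to diet surface (90:10 acetone-water), dried. 1–5 L2 larvae/well; 25° C., 14:10 L:D, 5–7 d. Read-out: % mortality, mean of 8 wells.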

[4] = Species CL (Cabbage Looper), read-out: CL (Biological Results, rating)
[5] = Species BAW (Beet Armyworm), read-out: BAW (Biological Results, rating)
[6] = Cabbage Looper, 128-well diet tray assay, read-out: CL rating
[7] = Beet Armyworm, 128-well diet tray assay, read-out: BAW rating

SMILES | YFM (Biological Results, rating) [1] | pest or weed control at 50 µg/cm2 [2, 4] | pest or weed control at 50 µg/cm2 [3, 5] | YFM rating [1] | pest or weed control at 50 µg/cm2 [2, 6] | pest or weed control at 50 µg/cm2 [3, 7]
N#Cc1cccc(F)c1NC(=O)c1cc(NC(=O)[C@H]2[C@H](c3cc(Cl)cc(Cl)c3)C2(Cl)Cl)ccc1Cl (relative stereo) [F299, 2-Chloro-N-(2-cyano-6-fluorophenyl)-5-(trans-2,2-dichloro-3-(3,5-dichlorophenyl)cyclopropane-1-carboxamido)benzamide] | A (80-100) | 50 to 100% | 50 to 100% | – | – | –
COc1ccc(NC(=O)c2cc(NC(=O)[C@H]3[C@H](c4cc(Cl)cc(Cl)c4)C3(Cl)Cl)ccc2Cl)cn1 (relative stereo) [F550, 2-Chloro-5-(trans-2,2-dichloro-3-(3,5-dichlorophenyl)cyclopropane-1-carboxamido)-N-(6-methoxypyridin-3-yl)benzamide] | – | – | – | A (80-100) | 50 to 100% | 50 to 100%
N#Cc1cc(F)ccc1NC(=O)c1cc(NC(=O)[C@H]2[C@H](c3cccc(C(F)(F)F)c3)C2(Cl)Cl)ccc1Cl (relative stereo) [F340, trans-2-Chloro-N-(2-cyano-4-fluorophenyl)-5-(2,2-dichloro-3-(3-(trifluoromethyl)phenyl)cyclopropane-1-carboxamido)benzamide] | A (80-100) | 50 to 100% | 50 to 100% | – | – | –
O=C(Nc1cc(F)c2[nH]ccc2c1)c1cc(NC(=O)[C@H]2[C@H](c3cc(Cl)cc(Cl)c3)C2(Cl)Cl)ccc1Cl (relative stereo) [F462, 2-Chloro-5-(trans)-(2,2-dichloro-3-(3,5-dichlorophenyl)cyclopropane-1-carboxamido)-N-(7-fluoro-1H-indol-5-yl)benzamide] | – | – | – | A (80-100) | 50 to 100% | 50 to 100%
O=C(Nc1ccc(F)cc1F)c1cc(NC(=O)[C@H]2[C@H](c3cc(Cl)c(Cl)c(Cl)c3)C2(Cl)Cl)ccc1F (relative stereo) [F75, trans-5-(2,2-Dichloro-3-(3,4,5-trichlorophenyl)cyclopropane-1-carboxamido)-N-(2,4-difluorophenyl)-2-fluorobenzamide] | A (80-100) | 50 to 100% | 50 to 100% | – | – | –
O=C(Nc1c[nH]c(=O)[nH]c1=O)c1cc(NC(=O)[C@H]2[C@H](c3cc(Cl)cc(Cl)c3)C2(Cl)Cl)ccc1Cl (relative stereo) [PF139, trans-2-Chloro-5-(2,2-dichloro-3-(3,5-dichlorophenyl)cyclopropane-1-carboxamido)-N-(2,4-dioxo-1,2,3,4-tetrahydropyrimidin-5-yl)benzamide] | – | – | – | B (More than 0-Less than 80) | 50 to 100% | 50 to 100%
O=C(Nc1ccc(I)c(F)c1)c1cc(NC(=O)[C@H]2[C@H](c3cc(Cl)cc(Cl)c3)C2(Cl)Cl)ccc1Cl (relative stereo) [F204, trans-2-Chloro-5-(2,2-dichloro-3-(3,5-dichlorophenyl)cyclopropane-1-carboxamido)-N-(3-fluoro-4-iodophenyl)benzamide] | A (80-100) | 50 to 100% | 50 to 100% | – | – | –
C=C(F)c1cc(Cl)cc([C@H]2[C@H](C(=O)Nc3ccc(Cl)c(C(=O)Nc4ccc(F)cc4C#N)c3)C2(Cl)Cl)c1 (relative stereo) [F387, 2-Chloro-N-(2-cyano-4-fluorophenyl)-5-(trans-2,2-dichloro-3-(3-chloro-5-(1-fluorovinyl)phenyl)cyclopropane-1-carboxamido)benzamide] | – | – | – | A (80-100) | 50 to 100% | 50 to 100%
CN(C(=O)c1cccc(NC(=O)[C@H]2[C@H](c3cc(Cl)c(Cl)c(Cl)c3)C2(Cl)Cl)c1F)c1ccccc1 (relative stereo) [F71, trans-3-(2,2-Dichloro-3-(3,4,5-trichlorophenyl)cyclopropane-1-carboxamido)-2-fluoro-N-methyl-N-phenylbenzamide] | B (More than 0-Less than 80) | 50 to 100% | 50 to 100% | – | – | –
O=C(Nc1ccc(F)cc1F)c1cc(NC(=O)[C@H]2[C@H](c3ccc(Cl)c(C(F)(F)F)c3)C2(Cl)Cl)ccc1Cl (relative stereo) [F374, 2-Chloro-5-(trans)-(2,2-dichloro-3-(4-chloro-3-(trifluoromethyl)phenyl)cyclopropane-1-carboxamido)-N-(2,4-difluorophenyl)benzamide] | – | – | – | A (80-100) | 50 to 100% | 50 to 100%
O=C(Nc1ncc(F)cc1F)c1cc(NC(=O)[C@H]2[C@H](c3ccc(F)c(Cl)c3)C2(Cl)Cl)ccc1Cl [F316, 2-Chloro-5-((1R,3R)-2,2-dichloro-3-(3-chloro-4-fluorophenyl)cyclopropane-1-carboxamido)-N-(3,5-difluoropyridin-2-yl)benzamide] | A (80-100) | 50 to 100% | 50 to 100% | – | – | –
Cc1cc2cc(NC(=O)c3cc(NC(=O)C4C(c5cc(Cl)cc(Cl)c5)C4(Cl)Cl)ccc3Cl)ccc2[nH]1 (stereo not drawn) [F454, 2-Chloro-5-(trans)-2,2-dichloro-3-(3,5-dichlorophenyl)cyclopropane-1-carboxamido)-N-(2-methyl-1H-indol-5-yl)benzamide] | – | – | – | A (80-100) | 50 to 100% | 50 to 100%
CN(C(=O)c1cc(NC(=O)[C@@H]2[C@@H](c3cc(Cl)cc(Cl)c3)C2(Cl)Cl)ccc1Cl)c1ccc(F)cc1 [F170, 2-Chloro-5-((1S,3S)-2,2-dichloro-3-(3,5-dichlorophenyl)cyclopropane-1-carboxamido)-N-(4-fluorophenyl)-N-methylbenzamide] | A (80-100) | 50 to 100% | 50 to 100% | – | – | –
COc1cc([C@H]2[C@H](C(=O)Nc3ccc(Cl)c(C(=O)Nc4ccc(F)cc4F)c3)C2(Cl)Cl)cc(F)c1Br (relative stereo) [F542, 5-(trans-3-(4-Bromo-3-fluoro-5-methoxyphenyl)-2,2-dichlorocyclopropane-1-carboxamido)-2-chloro-N-(2,4-difluorophenyl)benzamide] | – | – | – | A (80-100) | 50 to 100% | 50 to 100%
COc1cc(NC(=O)c2cc(NC(=O)[C@H]3[C@H](c4cc(Cl)cc(Cl)c4)C3(Cl)Cl)ccc2Cl)ccc1C#N (relative stereo) [F234, 2-Chloro-N-(4-cyano-3-methoxyphenyl)-5-(trans-2,2-dichloro-3-(3,5-dichlorophenyl)cyclopropane-1-carboxamido)benzamide] | A (80-100) | 50 to 100% | 50 to 100% | – | – | –
O=C(Nc1ccc(F)cc1)c1cc(NC(=O)[C@H]2[C@H](c3cc(Cl)cc(Cl)c3)C2(Cl)Cl)ccc1-n1cncn1 (relative stereo) [F12, trans-5-(2,2-Dichloro-3-(3,5-dichlorophenyl)cyclopropane-1-carboxamido)-N-(4-fluorophenyl)-2-(1H-1,2,4-triazol-1-yl)benzamide] | A (80-100) | 50 to 100% | 50 to 100% | – | – | –
O=C(Nc1ccc2c(c1)CCCN2)c1cc(NC(=O)[C@H]2[C@H](c3cc(Cl)cc(Cl)c3)C2(Cl)Cl)ccc1Cl (relative stereo) [F492, 2-Chloro-5-(trans)-(2,2-dichloro-3-(3,5-dichlorophenyl)cyclopropane-1-carboxamido)-N-(1,2,3,4-tetrahydroquinolin-6-yl)benzamide] | – | – | – | A (80-100) | 50 to 100% | 50 to 100%
O=C(Nc1ccc(F)cc1Cl)c1cccc(NC(=O)[C@H]2[C@H](c3cc(Cl)cc(Cl)c3)C2(Cl)Cl)c1 (relative stereo) [F274, trans-N-(2-Chloro-4-fluorophenyl)-3-(2,2-dichloro-3-(3,5-dichlorophenyl)cyclopropane-1-carboxamido)benzamide] | A (80-100) | 50 to 100% | 50 to 100% | – | – | –
O=C(Nc1ccc(F)cc1F)c1cc(NC(=O)[C@H]2[C@H](c3ccc(F)c(C(F)F)c3)C2(Cl)Cl)ccc1Cl (relative stereo) [F561, 2-Chloro-5-(trans-2,2-dichloro-3-(3-(difluoromethyl)-4-fluorophenyl)cyclopropane-1-carboxamido)-N-(2,4-difluorophenyl)benzamide] | – | – | – | A (80-100) | 50 to 100% | 50 to 100%
C=Cc1ccc([C@H]2[C@H](C(=O)Nc3ccc(Cl)c(C(=O)Nc4ccc(F)c(N)c4F)c3)C2(Cl)Cl)cc1Cl (relative stereo) [F355, N-(3-Amino-2,4-difluorophenyl)-2-chloro-5-(trans-2,2-dichloro-3-(3-chloro-4-vinylphenyl)cyclopropane-1-carboxamido)benzamide] | A (80-100) | 50 to 100% | 50 to 100% | – | – | –
C=Cc1ccc([C@H]2[C@H](C(=O)Nc3ccc(Cl)c(C(=O)Nc4ccc(F)cc4)c3)C2(Cl)Cl)cc1Cl (relative stereo) [F289, 2-chloro-5-(trans-2,2-dichloro-3-(3-chloro-4-vinylphenyl)cyclopropane-1-carboxamido)-N-(4-fluorophenyl)benzamide] | A (80-100) | 50 to 100% | 50 to 100% | – | – | –
